Source: patent US20120083522A1, “MODULATION OF INFLAMMATORY RESPONSES BY FACTOR XI” (Isis Pharmaceuitcals, inc., priority 2009, published 2012)
In the oligonucleotide strings, read from the 5' end, every base follows the letter of its sugar. An asterisk marks phosphorothioate; unmarked linkages are phosphodiester. Other units and linkages are bracketed, terminal groups are in braces. A string of capitals states the bases alone. e = 2'-O-(2-methoxyethyl) (MOE); [5mC] = 5-methylcytosine; d = 2'-deoxy (DNA)

Experiments:
[1] = test system: collagen-induced arthritis (CIA) model; assay: Arthritis Study A: collagen-induced arthritis (Example 11); format: in vivo, DBA/1J mice; conditions: DBA/1J mice, 20 mg/kg s.c. twice a week for 12 weeks
Procedure: The effect of inhibition of Factor XI and its role in fibrin accumulation in the joints leading to joint inflammation and rheumatoid arthritis was evaluated in a murine collagen-induced arthritis (CIA) model. […] Arthritis induced in mice administered collagen can be visually assessed and clinically scored as described by Marty et al. (J Clin Invest, 107:631-640, 2001) where 1 point is given for each swollen digit except the thumb (maximum, 4), 1 point is given for the tarsal or carpal joint, and 1 point is given for the metatarsal or metacarpal joint with a maximum score of […]. Each paw was graded individually, the cumulative clinical arthritic score per mouse reaching a maximum of 22 points
In a group of 15 DBA/1J mice, 20 mg/kg of ISIS 404071 was injected subcutaneously twice a week for 12 weeks. One control group of 15 mice was injected with 20 mg/kg of ISIS 403102 twice a week for 12 weeks. Two control groups of 15 mice each were injected with PBS twice a week for 12 weeks. Two weeks after the first oligonucleotide dose, type II bovine collagen (Chondrex Inc, Redmond, Wash.) was mixed with complete Freund's adjuvant, homogenized on ice and the emulsion, containing 100 μg of collagen, was injected subcutaneously at the base of the tail in the Factor XI group, the Factor VII group and one of the PBS control groups. A booster injection containing 100 μg collagen type II in incomplete Freund's adjuvant was injected subcutaneously at the base of the tail at a different injection site on day 21 after the first collagen injection in these groups.
Starting 35 days from the first collagen injection, mice in all groups were examined daily for the visual appearance of arthritis, such as swelling and stiffness, in peripheral joints. The results are presented in Table 20 (expressed as a percentage of the PBS control) and in FIGS. 1-3.
‘Incidence of CIA’ refers to the percentage of mice in each group that had CIA at day 40. The ‘percentage of paws affected’ refers to the percentage of paws out of a total of 60 paws in each group of mice that were affected with arthritis. ‘Average number of affected paws’ refers to the number of affected paws in mice that were diagnosed to have arthritis. The ‘clinical severity of CIA’ was scored as described by Marty et al. (J Clin Invest, 107:631-640, 2001) and as follows: 1 point for each swollen digit except the thumb (maximum, 4), 1 point for the tarsal or carpal joint, and 1 point for the metatarsal or metacarpal joint with a maximum score of 6 for a hindpaw and 5 for a forepaw. Each paw was graded individually, the cumulative clinical arthritic score per mouse reaching a maximum of 22 points.

[2] = test system: DSS-induced colitis model; assay: Colitis Study A: DSS-induced colitis, body weight and colon length (Example 12); format: in vivo, Swiss Webb mice
Procedure: The effect of antisense oligonucleotide inhibition of Factor XI and its role in ameliorating colitis was evaluated in a dextran sulfate sodium (DSS)-induced colitis model. Administration of DSS to animals is a well known method to induce […] and has been previously described by Okayasu et al. (Gastroenterology, 1990, 98:694-702), Cooper et al. (Lab Invest, 1993, 69:238-249) and Dieleman et al. (Clin Exp Immunol, 1998, 114:385-391).
In groups of 8 Swiss Webb mice, 20 mg/kg of ISIS 404071 or ISIS 403102 were injected subcutaneously twice a week for 3 weeks. Two control groups of 8 mice each were injected with PBS twice a week for 3 weeks. After the oligonucleotide treatments, 4% DSS in water was administered ad libitum for 6 days to the experimental groups and one PBS control group.
Mice in all groups were weighed at day 0. Mice were sacrificed at the end of the study on day 7 after DSS was administered and their body weights and colon lengths were measured. Results are presented in Table 24 (expressed as a percentage of the PBS control) and FIG. 7.
Colon length was assessed in the DSS-induced colitis mice.

[3] = test system: DSS-induced colitis model; assay: Colitis Study A: colon tissue histopathology; conditions: FIG. 8, listed as Factor VII ASO
[4] = Tolerability in CD1 mice: body and organ weights (Example 21); format: in vivo; conditions: 50 mg/kg s.c. twice per week for 6 weeks; for Body weight: increase over PBS control weight before start of treatment; for Kidney weight / Liver weight / Spleen weight: percentage of the body weight
Procedure: Body weight was measured at the onset of the study and subsequently twice per week. The body weights of the mice are presented in Table 87 and are expressed increase in grams over the PBS control weight taken before the start of treatment. Liver, spleen, and kidney weights were measured at the end of the study, and are also presented in Table 87 as percentage of the body weight.

[5] = Tolerability in CD1 mice: liver function (Example 21); format: in vivo; parameters: Albumin: unit not given here; conditions: plasma, 50 mg/kg s.c. twice per week for 6 weeks
[6] = Tolerability in CD1 mice: kidney function (Example 21); format: in vivo; conditions: plasma, 50 mg/kg s.c. twice per week for 6 weeks
[7] = Tolerability in CD1 mice: hematology assays (Example 21); format: in vivo; conditions: 50 mg/kg s.c. twice per week for 6 weeks
[8] = Tolerability in Sprague-Dawley rats: body and organ weights (Example 23); format: in vivo; conditions: 50 mg/kg s.c. twice per week for 6 weeks; for Body weight: increase over PBS control weight before start of treatment; for Kidney weight / Liver weight / Spleen weight: percentage of the body weight
[9] = Tolerability in Sprague-Dawley rats: liver function (Example 23); format: in vivo; parameters: Albumin: unit not given here; conditions: plasma, 50 mg/kg s.c. twice per week for 6 weeks
[10] = Tolerability in Sprague-Dawley rats: kidney function (Example 23); format: in vivo; conditions: for BUN: plasma; for Total urine protein / Urine protein/creatinine ratio: total urine samples
[11] = Tolerability in Sprague-Dawley rats: hematology assays (Example 23); format: in vivo; parameters: RBC / WBC / Neutrophil / Lymphocyte / Platelets: unit not given here; conditions: blood
[12] = DSS-induced colitis, day 7, 20 mg/kg s.c. twice a week for 3 weeks, expressed as a percentage of the PBS control

For “CCATAGAACAGCTTCACAGG (e[5mC]*e[5mC]*eA*eT*eA*dG*dA*dA*d[5mC]*dA*dG*d[5mC]*dT*dT*d[5mC]*eA*e[5mC]*eA*eG*eG) [ISIS 403102, reference compound]”, the “Average no. of paws affected” value ([1]; in mice diagnosed with arthritis) was 1, the “% of paws affected” value ([1]; out of 60 paws per group) was 19% and the “% of CIA” value ([1]; percentage of mice in group with CIA at day 40) was 54%. The “Clinical severity of CIA” value ([1]; score of Marty et al., maximum 22 points) was 4, the “body weight (in words)” value ([2]; Colitis Study A, FIG. 7A/7B) was “had a decrease in body weight” and the “colon length (in words)” value ([2]; Colitis Study A, FIG. 7C) was “had a decrease in colon length”. The Body weight change [2, 12] was −7%, the Colon length change [2, 12] was −34% and the “colon histology, lesions (in words)” value [3] was “shows the same histology as the DSS control”.

Sequence “GCAGCGGACGGCATTGGTGC (antisense; all C 5-methyl, all phosphorothioate, sugars by position not given here; MOE gapmer, 5-10-5) [ISIS 412225, 5-10-5 MOE gapmer]” has a Body weight [4] of 10 g, a Kidney weight [4] of 1.5% and a Liver weight [4] of 6%. The Spleen weight [4] was 0.4%, the ALT [5] was 40 IU/L and the AST [5] was 69 IU/L. The Albumin [5] was 3.3, the Bilirubin [5] was 0.23 mg/dL and the Cholesterol [5] was 128 mg/dL. The BUN [6] was 23 mg/dL, the HCT [7] was 50% and the Hemoglobin [7] was 15 g/dL. For the same sequence, the Lymphocyte [7] was 4969 cells/μL, the Monocytes [7] was 293 cells/μL and the Neutrophil [7] was 1547 cells/μL. For the same sequence, the Platelets [7] was 574 10^3/μL, the RBC [7] was 9 10^6/μL and the WBC [7] was 7 10^3/μL. For the same sequence, the Body weight [8] was 184 g, the Kidney weight [8] was 1.0% and the Liver weight [8] was 4%. It also gave a Spleen weight [8] of 0.5%, an ALT [9] of 48 IU/L and an AST [9] of 108 IU/L. The Albumin [9] was 5, the Bilirubin [9] was 0.15 mg/dL and the creatinine [10] was 58 mg/dL. It also gave a BUN [10] of 23 mg/dL, a Total urine protein [10] of 209 mg/dL and a Urine protein/creatinine ratio [10] of 4.0. It also gave an HCT [11] of 42%, a Hemoglobin [11] of 13.4 g/dL and a Lymphocyte [11] of 13204. The Neutrophil [11] was 1499, the Platelets [11] was 673 and the RBC [11] was 7.4. The WBC [11] was 15.

Sequence “GGTGCACAGTTTCTGGCAGG (all C 5-methyl, all phosphorothioate, sugars by position not given here; MOE gapmer) [ISIS 413481, 5-10-5 MOE gapmer]” has a Body weight [4] of 9 g, a Kidney weight [4] of 1.5% and a Liver weight [4] of 6%. For the same sequence, the Spleen weight [4] was 0.5%, the ALT [5] was 85 IU/L and the AST [5] was 143 IU/L. For the same sequence, the Albumin [5] was 3.2, the Bilirubin [5] was 0.18 mg/dL and the Cholesterol [5] was 153 mg/dL. For the same sequence, the BUN [6] was 23 mg/dL, the HCT [7] was 45% and the Hemoglobin [7] was 13 g/dL. For the same sequence, the Lymphocyte [7] was 4329 cells/μL, the Monocytes [7] was 204 cells/μL and the Neutrophil [7] was 1904 cells/μL. The Platelets [7] was 841 10^3/μL, the RBC [7] was 9 10^6/μL and the WBC [7] was 7 10^3/μL. For the same sequence, the Body weight [8] was 147 g, the Kidney weight [8] was 0.9% and the Liver weight [8] was 5%. It also gave a Spleen weight [8] of 0.3%, an ALT [9] of 54 IU/L and an AST [9] of 80 IU/L. It also gave an Albumin [9] of 4, a Bilirubin [9] of 0.22 mg/dL and a creatinine [10] of 45 mg/dL. It also gave a BUN [10] of 26 mg/dL, a Total urine protein [10] of 148 mg/dL and a Urine protein/creatinine ratio [10] of 3.6. It also gave an HCT [11] of 43%, a Hemoglobin [11] of 14.2 g/dL and a Lymphocyte [11] of 12707. The Neutrophil [11] was 1046, the Platelets [11] was 552 and the RBC [11] was 7.5. The WBC [11] was 14.
